Peptide text beside a SMILES is read from it. * marks the point of attachment. Orn(α-tetramethylguanidino) = CN(C)C(=N[C@@H](CCCN)C(=O)*)N(C)C
Tests used:
[1] = system: 70S ribosome, ribosomal binding site of Api88; assay: Fluorescence polarization competition with cf-Api88; design: species or system Escherichia coli; settings: Figure S3, twice in triplicate
Experimental: Ki was determined for ribosome extracts using cf-labeled and unlabeled peptides in ribosome preparation buffer. Black 384-well plates were prepared as described above. Unlabeled peptides or antibiotics (20 µL, 656 µmol/L) were added and 2-fold serially diluted in 23 wells in ribosome preparation buffer. A ribosome solution was prepared by adjusting the ribosome concentration to ~90% of the upper Kd plateau obtained for the cf-labeled peptide to be studied and added to each well (10 µL). After incubation (28 ± 1 °C, 90 min), the cf-labeled peptide (10 µL, 80 nmol/L) was added and incubated (28 ± 1 °C, 90 min). The fluorescence polarization was measured on a […] microplate reader in the top read position (λexc = 485 nm, λem = 535 nm) in triplicate on at least two different days. Data were fitted to a nonlinear, dose–response logistical transition equation [y= y0 + a/(1 + (x/x0)b)] using the Levenberg–Marquardt algorithm, with the half-maximal inhibition constants (IC50) represented by the x0 coefficients (GraphPad Prism for Windows v. 5.02, San Diego, CA, USA). Inhibition constants, Ki, were calculated as described by Mathias and Jung.
Pept ide Concent r at ion [ nM]
Figure S3. Fluorescence polarization assay testing Api88 an d Api137 in competition with cf-Api88 and cf-Api137, respectively, for the corresponding ribosomal binding sites. Experiments were done twice in triplicates. […]

[2] = E. coli Rosetta pLysS lysate, protein ~0.5 g/L; 37 °C; RP-HPLC UV 214 nm
Experimental: Peptides (7.5 µg) were mixed with lysates of E. coli Rosetta pLysS or E. coli BW25113 (protein concentration ~0.5 g/L) and incubated on an orbital shaker (37 °C, 750 rpm). After 0, 4, 8 and 24 h, aliquots were taken in duplicate or triplicate, and trichloroacetic acid was added to achieve a final concentration of 3% (v/v). Samples were incubated on ice (10 min) and centrifuged (13,000× g, 5 min). The supernatant was neutralized with aqueous sodium hydroxide (1 mol/L) and stored at −20 °C. Samples were separated on an ACQUITY arc system (Waters GmbH, Eschborn, Germany) using a Jupiter C18 column (ID: 2 mm). Elution was achieved using a linear aqueous acetonitrile gradient containing 0.1% (v/v) formic acid. The absorbance was recorded on a 2489 UV/VIS detector at 214 nm (Waters GmbH), and mass spectra were acquired online with an ion trap mass spectrometer equipped with an electrospray ionization source (ESI-IT-MS, Esquire HCT, Bruker Daltonics, Billerica, MA, USA). Peptide recoveries and the corresponding metabolites were calculated based on the peak areas (UV) of the initial peptide peak area at 0 min.

| Compound | inhibition of the binding of cf-labeled Api88 [1] | half-life time in lysate [2] [h] |
| --- | --- | --- |
| CC[C@H](C)[C@H](NC(=O)[C@H](Cc1ccc(O)cc1)NC(=O)[C@@H](NC(=O)[C@@H]1CCCN1C(=O)[C@H](CCCNC(=N)N)NC(=O)[C@H](CC(N)=O)NC(=O)[C@H](CC(N)=O)NC(=O)[C@H](CCCN)N=C(N(C)C)N(C)C)C(C)C)C(=O)N1CCC[C@H]1C(=O)N[C@@H](CCCNC(=N)N)C(=O)N1CCC[C@H]1C(=O)N[C@@H](CCCNC(=N)N)C(=O)N1CCC[C@H]1C(=O)N1CCC[C@H]1C(=O)N[C@@H](Cc1c[nH]cn1)C(=O)N1CCC[C@H]1C(=O)N[C@@H](CCCNC(=N)N)C(=O)N[C@@H](CC(C)C)C(N)=O [Api88] ({Orn(α-tetramethylguanidino)}-NNRPVYIPRPRPPHPRL-NH2) | did not inhibit |  |
| CC[C@H](C)[C@H](NC(=O)[C@@H]1CCCN1C(=O)[C@H](CCCNC(=N)N)NC(=O)[C@H](CC(N)=O)NC(=O)[C@H](CC(N)=O)NC(=O)CN)C(=O)N[C@@H](Cc1ccc(O)cc1)C(=O)N[C@H](C(=O)N1CCC[C@H]1C(=O)N[C@@H](CCCNC(=N)N)C(=O)N1CCC[C@H]1C(=O)N[C@@H](CCCNC(=N)N)C(=O)N1CCC[C@H]1C(=O)N1CCC[C@H]1C(=O)N[C@@H](Cc1c[nH]cn1)C(=O)N1CCC[C@H]1C(=O)N[C@@H](CCCNC(=N)N)C(=O)N1CCC[C@H]1C(=O)N[C@H](C(=O)N[C@@H](CCCNC(=N)N)C(=O)N[C@H](C(=O)O)C(C)C)[C@@H](C)CC)[C@@H](C)CC [Api805] (H-GNNRPIYIPRPRPPHPRPIRV-OH; N-terminus assumed) |  | > 24 |

— publication PMC9025336 (Antibiotics, 2022)
